Where “and” joins values, the source holds several entries; their conditions need not be identical. Equal values may be shown once.
Experiments:
K. pneumoniae = test: PET/CT in K. pneumoniae pneumonia murine model; format: in vivo, mice; settings: for PET signal in heat-killed K. pneumoniae inoculated lungs: 10x heat-killed K. pneumoniae; for ex vivo infected/uninfected lung ratio: ex vivo gamma counting after PET; for ROI-derived infected/uninfected lung ratio: in vivo PET, 80 min postinjection (mid time), 24 h after intranasal K. pneumoniae
Protocol: Given promising low background signals in uninfected mice, we further evaluated [^18F]-FNT and [^18F]-FMT in two different clinically relevant mouse models of lung and muscle infections. […] PET scanning was performed at 24 h postintranasal bacterial installation (Figure A). […] The ROI-derived infected/uninfected lung ratios of [^18F]-FDS, [^18F]-FMT, and [^18F]-FNT were approximately 3.2, 6.1, and 5.9-fold, respectively (Figure C), also supported by the ex vivo infected/uninfected lung ratio of [^18F]-FDS (∼1.6-fold), [^18F]-FMT (∼5.7-fold), and [^18F]-FNT (∼5.7-fold) (Figure D). Post-PET scans, infected lungs were harvested to determine colony forming units (CFUs). No significant differences in bacterial counts were observed among [^18F]-FDS, [^18F]-FMT, and [^18F]-FNT (Figure E). To confirm radiotracer specificity, we also evaluated mice inoculated with 10x heat-killed K. pneumoniae into lungs (Supporting Information Figure S5A–C).
All animal procedures were conducted in accordance with UCSF institutional guidelines and were approved by the Institutional Animal Care and Use Committee (IACUC). Female CBA/J mice (9 and 11 weeks old) were used for the study. Pulmonary infection and bacterial myositis models were established based on previously published protocols. , For pulmonary infection, 50 μL of K. pneumoniae (5 × 10^6 CFU) or 10× heat-killed K. pneumoniae were administered intranasally under anesthesia 24 h prior to imaging using PET. After PET scans, infected lungs were homogenized in PBS and plated on LB agar. Plates were incubated overnight at 37 °C to quantify the bacterial burden. For the bacterial myositis model, mice were intramuscularly injected with either 1 × 10^6 CFUs of live S. aureus (MSSA or MRSA) or 1 × 10^7 CFUs of heat-killed bacteria (50 μL) into the left and right deltoid muscles, respectively, 10 h prior to imaging using PET. Immediately following all imaging studies, target tissues were harvested, and radioactivity was measured using a gamma counter.
μPET/CT imaging was conducted using a nanoScan μPET/CT instrument (PET123S/CT1512, Mediso). Mice were anesthetized with 2% isoflurane/oxygen for intravenous administration of ^18F-tracers (∼5 MBq in 150 μL) via tail vein and maintained during data acquisition. PET data of uninfected mice were acquired in the list mode for 90 min, starting immediately after ^18F-tracer administration, followed by a CT scan. The PET data were reconstructed into three-dimensional volumes and coregistered with CT images using manufacturer-provided software in 53 dynamic frames (15 × 2 s, 6 × 5 s, 6 × 10 s, 4 × 30 s, 6 × 30 s, and 16 × 300 s). PET data of infected mice were acquired for 20 min, starting at 70 min postinjection of ^18F-tracer (mid time 80 min), followed by a CT scan. The list mode PET data were reconstructed into three-dimensional volumes in a single static frame. All PET scans were corrected for ^18F decay, dead time, and random coincidences and reconstructed into a 160 × 160 × 184 matrix with voxel size 0.8 mm using a three-dimensional ordered subject expectation maximization (OSEM) algorithm (40 iterations, 1 subset). Both attenuation and scatter corrections were applied to PET reconstructions using the coregistered CT. ROIs were drawn manually around the brain, lungs, liver, kidney, and urinary bladder using Amide software to generate image-derived TACs. For the estimation of blood pool radioactivity over time, ROIs were drawn on the left atrium. To estimate the plasma half-life of tracers, the TAC of the blood pool was fitted to a two-compartment model using a biexponential decay function: C t(t) = Ae ^–αt + Be ^ ‑βt , where C t(t) is the tracer concentration (% IDcc^–1) at time (t), A and B are the intercepts, and α and β are the distribution and elimination rate constants, respectively. , Quantitative uptake values are expressed as % IDcc^–1, representing the percent of the total injected dose per cubic centimeter. […]

S. aureus (ATCC 29213) = test: In vitro uptake of 18F-tracers by bacteria; format: cell-based, Staphylococcus aureus
Protocol: (§1) In vitro evaluation of ^18F-tracers was conducted according to our established procedure. Briefly, bacteria were incubated overnight at 37 °C, subcultured into a fresh medium at an initial OD600 of 0.05, and then allowed to reach the mid log phase (OD600 ∼ 0.4). The cultures were subsequently incubated with ^18F-tracers (final concentration: 0.1 MBq/mL) at 37 °C for 90 min. Subsequently, 300 μL aliquots of these cultures were centrifuged at 13,200 rpm for 6 min. The resulting pellets were washed with 300 μL of phosphate-buffered saline (PBS). The radioactivity of the pellets and supernatants was measured using a gamma counter. Uptake values were normalized to colony-forming units (CFUs).

Listeria monocytogenes = test: In vitro uptake of 18F-tracers by bacteria; format: cell-based; settings: L. monocytogenes; 37 °C, 90 min
Protocol: as §1

[1] = system: Staphylococcus epidermidis; test: In vitro uptake of 18F-tracers by bacteria; format: cell-based; settings: S. epidermidis; 37 °C, 90 min
Protocol: as §1

Streptococcus agalactiae = test: In vitro uptake of 18F-tracers by bacteria; format: cell-based; settings: S. agalactiae; 37 °C, 90 min
Protocol: as §1

[2] = system: methicillin-resistant S. aureus (MRSA) clinical isolates; test: In vitro uptake in clinical isolates; format: cell-based, Staphylococcus aureus; settings: P < 0.0001
Protocol: as §1

[3] = system: methicillin-sensitive S. aureus (MSSA) clinical isolates; test: In vitro uptake in clinical isolates; format: cell-based, Staphylococcus aureus; settings: vs S. aureus ATCC 29213; P < 0.0001
Protocol: as §1

[4] = Human radiation dosimetry extrapolated from murine biodistribution; format: in vivo
Protocol: A dosimetry study was carried out in female CBA/J mice (n = 4, 9–11 weeks). Human organ and whole-body effective doses were extrapolated from the mice biodistribution data according to our previous report. For each organ, absorbed and equivalent doses (mGy/MBq or mSv/MBq), as well as whole-body effective doses (mSv/MBq), were calculated from murine data. Dose estimations were performed with OLINDA software (v1.1 and 2.0 with ICRP 60 and 103 tissue weighting factors). ,

[5] = Radio-HPLC analysis of urine samples (metabolic stability in vivo); settings: urine from healthy mice 90 min after i.v. administration
Protocol: 7 Dosimetry extrapolated to humans and metabolic stability of [^18F]-FNT. (A) Estimated absorbed dose (mGy/MBq) extrapolated from murine biodistribution data using ICRP103 (adult female, 60 kg). (B–D) Representative radio-HPLC profiles of [^18F]-FDS (B), [^18F]-FNT (C), and urine samples collected from healthy mice 90 min following [^18F]-FNT administration via i.v. (D).

SMILES | PET signal in heat-killed K. pneumoniae inoculated lungs (K. pneumoniae) | ex vivo infected/uninfected lung ratio (K. pneumoniae) [fold] | ROI-derived infected/uninfected lung ratio (K. pneumoniae) | uptake in the presence of nonradioactive [19F]FNT (blocking) (S. aureus (ATCC 29213); S. aureus ATCC 29213, 1 mM [19F]FNT, P < 0.0001) | in vitro uptake (S. aureus (ATCC 29213); S. aureus, 37 °C, 90 min) | uptake in heat-killed S. aureus (S. aureus (ATCC 29213); heat-killed bacteria, P < 0.0001) | in vitro uptake (Listeria monocytogenes) | in vitro uptake [1] | in vitro uptake (Streptococcus agalactiae) | higher uptake in clinically isolated MRSA compared with [18F]FMT ([2]; in vitro) | uptake in clinical MRSA isolates compared to the reference MSSA strain ([2]; vs S. aureus ATCC 29213) | uptake in clinical MSSA isolates compared to the reference MSSA strain [3] | calculated human effective dose ([4]; ICRP 60) [mSv/MBq] | kidneys dose ([4]; ICRP 60 model) [mSv/MBq] | urinary bladder dose ([4]; ICRP 60 model) [mSv/MBq] | calculated human effective dose ([4]; ICRP 103) [mSv/MBq] | kidneys dose ([4]; ICRP 103 model) [mSv/MBq] | urinary bladder dose ([4]; ICRP 103 model) [mSv/MBq] | estimated organ-absorbed doses overall ([4]; overall, called low) [mSv/MBq] | metabolic stability in vivo (urine radio-HPLC) [5]
OC[C@@H](O)[C@@H](O[C@H]1O[C@H](CO)[C@@H](O)[C@H](O)[C@H]1O)[C@H](O)[C@@H]([18F])CO [[18F]FMT, 2-deoxy-2-[18F]fluoro-D-maltitol] | No visible signal | ~5.7 | ~6 fold and ~6.1 fold |  |  |  |  |  |  |  |  |  |  |  |  |  |  |  |  | 
OC[C@@H](O)[C@@H](O)[C@H](O[C@H]1O[C@H](CO)[C@@H](O)[C@H](O)[C@H]1O)[C@@H]([18F])CO [[18F]FNT, 2-deoxy-2-[18F]fluoro-D-nigeritol] | No visible signal | ~5.7 | ~6 fold and ~5.9 fold | significantly reduced | moderate uptake | no uptake | low | moderate uptake | low | approximately 4 fold | higher uptake | higher uptake | 0.0163 ± 0.0012 | 0.0753 ± 0.0307 | 0.1783 ± 0.0314 | 0.0126 ± 0.0005 | 0.0751 ± 0.0307 | 0.1518 ± 0.0262 | > 0.02 | remained intact, with no degradation observed
